# Source: patent US10494341B2, “Compound containing indoleacetic acid core structure and use thereof” (Beijing An Jian Xi Bio-Medical Technology Co., Ltd., priority 2015, dated 2019)
# Legend:
# Assay type in all cases: in vivo
# mice (C57BL/6J) = experiment: Survival rate of mice irradiated by γ-rays; details: 30th day after 8.75 Gy γ-rays, 16 mice per group; for number of survived mice: intermediates each 3 mg/kg/day gavage; for survival rate: compounds 6 mg/kg/day gavage, amifostine 400 mg/kg/day i.p.
# Method: In this experiment, 10-week-old male mice (C57BL/6J) weighing about 20 g were used as subjects, and 16 mice were taken as a group. The mice were divided into the following groups: 1. no γ-ray+no drug; 2. γ-ray+no drug; 3. γ-ray+amifostine; 4. γ-ray+intermediate I+intermediate II; 5. γ-ray+compound a; 6. γ-ray+compound b; and 7. γ-ray+compound d. Firstly, each group of mice was administered with a protective agent, and the specific amounts were as follows: compound a, b and d: 6 mg/kg/day (8.1 μM), amifostine: 400 mg/kg/day (1.5 mM), intermediate I+Intermediate II: each 3 mg/kg/day (8.1 μM). Except that amifostine was intraperitoneally injected (30 minutes before irradiation, amifostine was administered), the other protective agents were administered by gavage. 12 hours after administration, systemic irradiation was performed using cobalt 60γ-rays at a dose of 8.75Gy and a dose rate of 0.35 Gy/min for 25 minutes, with the radiation source 80 cm away from the mice. The mice were irradiated once, and continuously administered with drugs once daily for 10 days after irradiation. The number of survival mice was recorded. The percentage obtained by dividing the number of survival mice by the total number of mice in the experimental group (16 mice) is survival rate of mice, and the results are summarized in FIG. 7. […] It is noteworthy that in the experimental group using intermediate I+intermediate II, only one mouse is survived.
# peripheral leukocytes = experiment: Protection against blood cell (leukocyte) damage induced by paclitaxel; details: mice, compounds 6 mg/kg/day gavage; for protective effect on peripheral leukocytes (words): paclitaxel 10 mg/kg/day i.p.; for protective effect on leukocytes at the late stage of chemotherapy: paclitaxel
# Method: In this experiment, 10-week-old male mice (C57BL/6J) weighing about 20 grams were used as subjects, and 6 mice were taken as a group. The mice were divided into 5 groups: 1. Paclitaxel; 2. Paclitaxel+amifostine; 3. Paclitaxel+intermediate I+intermediate II; 4. paclitaxel+compound a; and 5. paclitaxel+compound b. Firstly, each group of mice was administered with a protective agent, and the specific amounts were as follows: compounds a and b: each 6 mg/kg/day (8.1 μM), amifostine: 400 mg/kg/day (1.5 mM), intermediate I+Intermediate II: each 3 mg/kg/day (8.1 μM). Except that amifostine was intraperitoneally injected (30 minutes before administering Paclitaxel, amifostine was administered), the other protective agents were administered by gavage (once a day, 25 times continuously). 12 hours after the compound a and the corresponding protective agents were administered, Paclitaxel was intraperitoneally injected (10 mg/kg/day, once every 3 days, 9 times continuously), and 7, 14, 21, 28 days later, blood of mice was drawn respectively. The number of leukocytes was analyzed.
# COX-1 in gastric mucosa = target: T1, COX-1 in gastric mucosa (Rattus norvegicus, UniProt Q63921); experiment: COX-1 activity assay, gastric mucosa (thromboxane B2 EIA) after oral dosing of A23187-treated rats; details: for reduction of inhibition against COX-1 in gastric mucosal tissue compared with intermediate I: gavage 1, 3, 9 mg/kg/day, intermediate I 0.5 mg/kg, 6 h after dosing; for effect of inhibiting COX-1 in gastric mucosa: gavage, A23187-activated
# T1 construct: from tissue; host or cells: rat gastric mucosa (in vivo dosing, tissue homogenate supernatant)
# T1 sequence (Q63921 27-602): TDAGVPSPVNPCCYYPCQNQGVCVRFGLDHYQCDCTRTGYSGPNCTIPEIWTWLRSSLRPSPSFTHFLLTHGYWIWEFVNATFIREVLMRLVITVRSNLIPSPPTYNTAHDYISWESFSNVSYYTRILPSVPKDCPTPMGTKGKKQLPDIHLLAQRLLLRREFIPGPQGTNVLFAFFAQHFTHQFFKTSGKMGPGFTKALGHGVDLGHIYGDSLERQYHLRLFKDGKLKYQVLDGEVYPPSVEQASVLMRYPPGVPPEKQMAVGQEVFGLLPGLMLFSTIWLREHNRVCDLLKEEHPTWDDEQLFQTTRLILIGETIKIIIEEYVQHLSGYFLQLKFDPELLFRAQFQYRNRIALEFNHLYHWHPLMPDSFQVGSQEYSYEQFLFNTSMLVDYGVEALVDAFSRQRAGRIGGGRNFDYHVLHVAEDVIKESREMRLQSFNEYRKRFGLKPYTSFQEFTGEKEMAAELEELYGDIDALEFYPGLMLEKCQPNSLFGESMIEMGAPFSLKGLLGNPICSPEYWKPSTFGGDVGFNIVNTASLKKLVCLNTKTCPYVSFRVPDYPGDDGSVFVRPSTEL
# Method: (1) COX-1 activity assay: 2 hours after intraperitoneal injection of calcium ionophore A23187 (50 mg/kg) to rats, each of the compounds a, b, c, d, e and f was orally administered (gavage) to three rats at a dose of 1, 3 and 9 mg/kg/day, respectively; the intermediate I was orally administered as a control drug to three rats at a dose of 0.5 mg/kg; and additional three rats were only administered with COX-1 activator, the calcium ionophore A23187, and were not administered with the compounds of the present invention. 6 hours after the compound of the present invention was administered, the animals were sacrificed, gastric mucosal tissue and myocardial tissue were collected, homogenized, and subjected to high-speed centrifugation (12,000 rpm), and the supernatant was collected for use. The amount of thromboxane B2 was measured using an enzyme-linked immunosorbent assay (EIA) kit (operated in accordance with the instructions provided by the manufacturer) and converted to COX1 activity.
# The percentage inhibition rate against COX-1 (FIG. 1a—gastric mucosa, FIG. 1b—myocardium) and COX-2 (FIG. 1c) and the IC50 values (Table 1a—gastric mucosa; Table 1b—myocardium) of each tested pharmaceutical compound were calculated from the above data.
# gastric mucosa = experiment: Ulcer induction in rats after gavage (lesions of the gastric mucosa); details: for prevalence of ulcer / Ulcer index: gavage three times; for Ulcer index: Dose 90 μM/kg, 12 hours after last gavage; for ulcer at high concentration: gavage, high concentration (90 μM)
compound,measurement,setting,value
COc1ccc2c(CC(=O)OCCCCCCCCCCc3c(C)c(O)c(OC)c(OC)c3O)c(C)n(C(=O)c3ccc(Cl)cc3)c2c1 [compound b],number of survived mice,mice (C57BL/6J),12 mice
same,survival rate,mice (C57BL/6J),75%
same,protective effect on peripheral leukocytes (words),peripheral leukocytes,apparently reduce radiation-induced peripheral leukocyte damage
same,protective effect on peripheral leukocytes (words),peripheral leukocytes; listed as Compound b,strongest protective effect
same,protective effect on leukocytes at the late stage of chemotherapy,peripheral leukocytes,significantly better than that of amifostine
same,reduction of inhibition against COX-1 in gastric mucosal tissue compared with intermediate I,COX-1 in gastric mucosa,~700 fold
same,effect of inhibiting COX-1 in gastric mucosa,COX-1 in gastric mucosa,almost lose the effect of inhibiting COX-1 in gastric mucosa
same,prevalence of ulcer,gastric mucosa; 10 μM,0/6
same,prevalence of ulcer,gastric mucosa; 30 μM,0/6
same,prevalence of ulcer,gastric mucosa; 90 μM,0/6
same,Ulcer index,gastric mucosa,0
same,ulcer at high concentration,gastric mucosa,does not result in ulcer
COC1=C(OC)C(=O)C(CCCCCCCCCCOC(=O)Cc2c(C)n(C(=O)c3ccc(Cl)cc3)c3cc(OC)ccc23)=C(C)C1=O [compound a],number of survived mice,mice (C57BL/6J),10 mice
same,survival rate,mice (C57BL/6J),62.5%
same,protective effect on peripheral leukocytes (words),peripheral leukocytes,apparently reduce radiation-induced peripheral leukocyte damage
same,protective effect on leukocytes at the late stage of chemotherapy,peripheral leukocytes,significantly better than that of amifostine
same,reduction of inhibition against COX-1 in gastric mucosal tissue compared with intermediate I,COX-1 in gastric mucosa,~700 fold
same,effect of inhibiting COX-1 in gastric mucosa,COX-1 in gastric mucosa,almost lose the effect of inhibiting COX-1 in gastric mucosa
same,prevalence of ulcer,gastric mucosa; 10 μM,0/6
same,prevalence of ulcer,gastric mucosa; 30 μM,0/6
same,prevalence of ulcer,gastric mucosa; 90 μM,1/6
same,Ulcer index,gastric mucosa,3.3 ± 0.12
same,ulcer at high concentration,gastric mucosa,only one rat has light ulcer
